Experimental data from patent publication US5001137A, “Pyridine compounds and pharmaceutical use thereof” (Yoshitomi Pharmaceutical Industries, Ltd., priority 1988, dated 1991).

Target: T1, prolylendopeptidase (Rattus norvegicus, UniProt O70196)
T1 construct: using rat cerebral soluble fractions as the crude enzyme; from tissue; host or cells: rat cerebrum, soluble fraction (crude enzyme)
Assay: Measurement of prolylendopeptidase-inhibitory activity (rat cerebral soluble fractions as crude enzyme; succinyl-glycyl-prolylmethylcoumarinamide substrate, fluorescence)
Assay type: biochemical
Details: rat cerebral soluble fraction, pH 7.0, 30° C., 15 minutes, 0.25% dimethylsulfoxide
Protocol: The prolylendopeptidase-inhibitory activity was estimated, using rat cerebral soluble fractions as the crude enzyme, in accordance with the methods by Yoshimoto et al (Biochem. Biophys. Acta., vol. 569, p 184 (1979)) and Kato et al. (J. Neurochem., vol. 35, p 527 (1980)). That is, a mixture containing 0.1 ml of 0.25 mM succinyl-glycyl-prolylmethylcoumarinamide, 1.15 ml of 0.1M Na/K phosphate buffer solution (pH 7.0), 0.1 ml of the crude enzyme and 0.1 ml of a solution of the compound of the present invention (at the final concentration of dimethylsulfoxide of 0.25%) was incubated at 30° C. for 15 minutes. Thereafter 1.5 ml of 0.1M acetate buffer solution (pH 4.2) was added to terminate the reaction. The fluorescence intensity (a) of the liberated methyl coumarinamide was measured by a fluorophotometer (Ex. 370 nm, Em. 440 nm). At the same time, the fluorescence intensity (b) of the control comprising a dimethylsulfoxide solution alone (at the final concentration of 0.25%) instead of the compound of the present invention was measured, and the prolylendopeptidase-inhibitory rate was calculated in accordance with the following formula and the concentration at which 50% of inhibition (IC50) can be attained was estimated.
Inhibition (%)={(b-a)/b)}×100

T1 sequence (O70196 whole entry): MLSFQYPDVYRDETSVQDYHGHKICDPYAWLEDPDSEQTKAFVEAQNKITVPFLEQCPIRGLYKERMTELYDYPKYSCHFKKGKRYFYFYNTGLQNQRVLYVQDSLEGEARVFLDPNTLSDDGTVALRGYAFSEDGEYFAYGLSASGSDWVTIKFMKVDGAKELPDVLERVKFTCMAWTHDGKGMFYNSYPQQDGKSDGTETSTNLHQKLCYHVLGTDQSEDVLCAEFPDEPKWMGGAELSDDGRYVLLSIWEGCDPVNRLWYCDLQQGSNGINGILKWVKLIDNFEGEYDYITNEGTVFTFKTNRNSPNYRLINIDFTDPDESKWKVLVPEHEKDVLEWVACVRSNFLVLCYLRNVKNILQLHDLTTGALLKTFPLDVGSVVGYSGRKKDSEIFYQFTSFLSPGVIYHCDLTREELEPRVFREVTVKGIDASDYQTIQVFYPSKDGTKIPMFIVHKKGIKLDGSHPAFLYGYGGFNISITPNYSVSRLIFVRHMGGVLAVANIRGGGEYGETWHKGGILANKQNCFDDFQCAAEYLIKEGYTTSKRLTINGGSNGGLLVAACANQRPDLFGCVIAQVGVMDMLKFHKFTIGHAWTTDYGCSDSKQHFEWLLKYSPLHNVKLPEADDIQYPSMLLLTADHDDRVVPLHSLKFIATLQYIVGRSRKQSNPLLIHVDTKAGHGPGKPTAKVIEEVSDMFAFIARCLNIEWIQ

## CN(C)CCCCCCSc1ncccc1C(=O)c1cccs1 [Example 5, 2-(6-dimethylaminohexylthio)-3-(2-thenoyl)pyridine]
  IC50: 0.0095 µM

## CN(C)CCCOc1ccc(Oc2ncccc2C(=O)c2cccs2)cc1 [Example 4, 2-[4-(3-dimethylaminopropoxy)phenoxy]-3-(2-thenoyl)pyridine]
  IC50: 0.06 µM

## CN(C)CCCCCCSCCSc1ncccc1C(=O)c1cccs1 [Example 19, 2-[2-(6-Dimethylaminohexylthio)ethylthio]-3-(2-thenoyl)pyridine]
  IC50: 0.0045 µM

## CN(C)CCc1ccc(Oc2ncccc2C(=O)c2cccs2)cc1 [Example 1, 2-[4-(2-dimethylaminoethyl)phenoxy]-3-(2-thenoyl)pyridine]
  IC50: 0.014 µM

## CC(CSCCCCCCN(C)C)Sc1ncccc1C(=O)c1cccs1 (stereo not shown) [Example 17, 2-[2-(6-Dimethylaminohexylthio)-1-methylethylthio]-3-(2-thenoyl)pyridine]
  IC50: 0.0045 µM

## CN(C)CCCOc1ncccc1C(=O)c1ccc(Cl)cc1 [Known Compound, 3-(4-chlorobenzoyl)-2-(3-dimethylaminepropoxy)pyridine, reference compound]
  IC50: 1800 µM

## Cc1ccc(C(=O)c2cccs2)c(SCCCCCCN(C)C)n1 [Example 18, 2-(6-Dimethylaminohexylthio)-6-methyl-3-(2-thenoyl)pyridine]
  IC50: 0.0095 µM

## CN(C)CCCCCCOc1ncccc1C(=O)c1cccs1 [Example 13, 2-(6-dimethylaminohexyloxy)-3-(2-thenoyl)pyridine]
  IC50: 0.055 µM

## CC(C)c1ccc(C(=O)c2cccs2)c(SCCCCCCN(C)C)n1 [Example 21, 2-(6-Dimethylaminohexylthio)-6-isopropyl-3-(2-thenoyl)pyridine]
  IC50: 0.0055 µM

## CCN(CC)CCCCCCSc1nc(C(C)C)ccc1C(=O)c1cccs1 [Example 22, 2-(6-Diethylaminohexylthio)-6-isopropyl-3-(2-thenoyl)pyridine]
  IC50: 0.011 µM

## CN(CCCCCCOc1ncccc1C(=O)c1cccs1)Cc1ccccc1 [Example 6, 2-[6-(N-benzyl-N-methylamino)hexyloxy]-3-(2-thenoyl)pyridine]
  IC50: 0.078 µM

## CC(CSCCCN(C)C)Sc1ncccc1C(=O)c1cccs1 (stereo not shown) [Example 20, 2-[2 (3-Dimethylaminopropylthio)-1-methylethylthio]-3-(2-thenoyl)pyridine]
  IC50: 0.0045 µM

## CN(C)CCCCCCOc1ccc(Oc2ncccc2C(=O)c2cccs2)cc1 [Example 2, 2-[4-(6-dimethylaminohexyloxy)phenoxy]-3-(2-thenoyl)pyridine]
  IC50: 0.03 µM
